Experiments:
[1] = system: T1, Bacterially expressed recombinant maltose-binding-protein (MBP)-hPOSH
T1 sequence: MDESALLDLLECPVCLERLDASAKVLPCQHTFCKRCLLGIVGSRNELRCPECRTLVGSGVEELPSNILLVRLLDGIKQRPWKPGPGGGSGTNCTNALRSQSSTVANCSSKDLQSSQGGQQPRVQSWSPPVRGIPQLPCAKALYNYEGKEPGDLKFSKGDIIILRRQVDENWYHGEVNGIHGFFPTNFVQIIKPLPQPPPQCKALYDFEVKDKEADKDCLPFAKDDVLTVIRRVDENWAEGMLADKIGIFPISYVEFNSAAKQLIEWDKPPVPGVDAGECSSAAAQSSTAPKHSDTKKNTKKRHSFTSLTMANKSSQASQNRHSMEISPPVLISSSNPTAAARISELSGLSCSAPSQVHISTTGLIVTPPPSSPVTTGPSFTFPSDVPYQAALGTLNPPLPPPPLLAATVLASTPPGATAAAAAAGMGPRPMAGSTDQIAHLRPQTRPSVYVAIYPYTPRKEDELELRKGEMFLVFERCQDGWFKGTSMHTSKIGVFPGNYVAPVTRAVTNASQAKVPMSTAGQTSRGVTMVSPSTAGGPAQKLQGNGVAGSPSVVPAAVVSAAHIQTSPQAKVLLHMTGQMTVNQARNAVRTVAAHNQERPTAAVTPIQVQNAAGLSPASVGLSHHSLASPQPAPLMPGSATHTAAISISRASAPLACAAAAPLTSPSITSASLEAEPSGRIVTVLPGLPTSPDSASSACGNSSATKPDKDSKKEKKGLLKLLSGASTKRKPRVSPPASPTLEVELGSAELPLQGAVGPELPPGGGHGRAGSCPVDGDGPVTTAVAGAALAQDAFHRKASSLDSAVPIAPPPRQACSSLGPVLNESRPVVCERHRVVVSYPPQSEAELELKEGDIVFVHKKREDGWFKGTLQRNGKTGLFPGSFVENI

[2] = system: HIV-1; conditions: H89 50 μM, HeLa SS6 cells transfected with pNLenv-1, 20 minutes after shift to 37° C.
Experimental: HeLa SS6 cells were transfected with pNLenv-1PTAP or pNLenv-1ATAA (L-domain mutant). Eighteen hours post-transfection, cells were transferred to 20° C. for two hours in order to inhibit transport of viral particles from the trans-Golgi (TGN) to the plasma membrane (PM). Subsequently, the PKA inhibitor, H89 (50 μM) (Biosource, Cat. No. PHZ1114) or DMSO were added to the cells and dishes were transferred to 37° C. to initiate transport from the TGN to the PM. Reverse transcriptase activity was assayed from virus-like-particles collected from cell supernatant twenty minutes later.
For transfections, HeLa SS6 cells were grown to 100% confluency in DMEM containing 10% FCS without antibiotics. Cells were then transfected with HIV-1NLenv1 (2 μg per 6-well) (Schubert et al., 1995).
Virus and virus-like particle (VLP) release by reverse transcriptase activity was determined one day after transfection with the pro-viral DNA as previously described (Adachi et al., 1986; Fukumori et al., 2000; Lenardo et al., 2002). The culture medium of virus-expressing cells was collected and centrifuged at 500×g for 10 minutes. The resulting supernatant was passed through a 0.45 μm-pore filter and the filtrate was centrifuged at 14,000×g for 2 hours at 4° C. […]

[3] = system: HIV-1; conditions: Cartier et al., 2003; cited from earlier work

Row | Compound | phosphorylation of hPOSH (immunoblot with PKA-substrate phospho-specific antibody) [1] | inhibition of RT activity of virus-like-particles collected from cell supernatant [2] | block of HIV-1 release from cells [3]
1 | PKA catalytic subunit (PKAc) | POSH is phosphorylated by PKA |  | 
2 | O=S(=O)(NCCNCC=Cc1ccc(Br)cc1)c1cccc2cnccc12 [H89, N-[2-((Pbromocinnamyl)amino)ethyl]isoquinolinesulfonamide] |  | complete inhibition | able to block HIV-1 release from cells
